Data: PubChem BioAssay AID212 (DTP/NCI, 2004)
Values joined by “and” are separate entries in the source; they are usually repeats but may differ in a detail not shown here. Identical values can stand only once. Results filed as inconclusive are left out.

Tested on: BDF1 mice, colon carcinoma 38 sc, T/C %
Assay: NCI In Vivo Anticancer Drug Screen. Data for tumor model Colon Carcinoma 38 (subcutaneous) in B6D2F1 (BDF1) mice
Conditions: endpoint: median tumor weight (est.), higher = larger tumour
How it was run: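 Transplantable tumor in mice; compound-treated vs vehicle-dosed controls. Measured survival or tumor size; value = T ÷ C.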

[1] = dose: 25.0 mg/kg/injection, schedule: Q07DX002 (ip), vehicle: saline with Tween-80
[2] = dose: 50.0 mg/kg/injection, schedule: Q07DX002 (ip), vehicle: saline with Tween-80
[3] = dose: 100.0 mg/kg/injection, schedule: Q07DX002 (ip), vehicle: saline with Tween-80
[4] = dose: 200.0 mg/kg/injection, schedule: Q07DX002 (ip), vehicle: saline with Tween-80
[5] = dose: 6.25 mg/kg/injection, schedule: Q07DX002 (ip), vehicle: saline
[6] = dose: 12.5 mg/kg/injection, schedule: Q07DX002 (ip), vehicle: saline
[7] = dose: 25.0 mg/kg/injection, schedule: Q07DX002 (ip), vehicle: saline
[8] = dose: 50.0 mg/kg/injection, schedule: Q07DX002 (ip), vehicle: saline
[9] = dose: 3.12 mg/kg/injection, schedule: Q07DX002 (ip), vehicle: saline with Tween-80
[10] = dose: 6.25 mg/kg/injection, schedule: Q07DX002 (ip), vehicle: saline with Tween-80
[11] = dose: 12.5 mg/kg/injection, schedule: Q07DX002 (ip), vehicle: saline with Tween-80
[12] = dose: 100.0 mg/kg/injection, schedule: Q07DX002 (ip), vehicle: saline
[13] = dose: 800.0 mg/kg/injection, schedule: Q07DX002 (ip), vehicle: saline
[14] = dose: 0.5 mg/kg/injection, schedule: Q07DX002 (ip), vehicle: water
[15] = dose: 1.0 mg/kg/injection, schedule: Q07DX002 (ip), vehicle: water
[16] = dose: 2.0 mg/kg/injection, schedule: Q07DX002 (ip), vehicle: water
[17] = dose: 6.25 mg/kg/injection, schedule: Q07DX002 (ip), vehicle: suspension in saline
[18] = dose: 12.5 mg/kg/injection, schedule: Q07DX002 (ip), vehicle: suspension in saline
[19] = dose: 25.0 mg/kg/injection, schedule: Q07DX002 (ip), vehicle: suspension in saline
[20] = dose: 50.0 mg/kg/injection, schedule: Q07DX002 (ip), vehicle: suspension in saline

CCCCOCN(COCCCC)C12CC3CC(CC(C3)C1)C2
T/C [1]: 93 % of control
T/C [2]: 73 % of control
T/C [3]: 120 % of control
T/C [4]: 69 % of control

CN(C)c1ccc(C(=C2C=CC(=[N+](C)C)C=C2)c2ccc(N(C)C)cc2)cc1 (tested in a mixture with another compound)
T/C (dose: 0.62 mg/kg/injection, schedule: Q07DX002 (ip), vehicle: saline with Tween-80): 61 % of control
T/C (dose: 2.5 mg/kg/injection, schedule: Q07DX002 (ip), vehicle: saline with Tween-80): 71 % of control

OCCN1CCN(CCCN2c3ccccc3Sc3ccc(C(F)(F)F)cc32)CC1
T/C (dose: 3.12 mg/kg/injection, schedule: Q07DX002 (ip), vehicle: saline): 115 % of control
T/C [5]: 91 % of control
T/C [6]: 61 % of control
T/C [7]: 67 % of control
T/C [8]: 56 % of control

BrC[P+](CBr)(CBr)CBr
T/C [9]: 48 % of control
T/C [10]: 73 % of control
T/C [2]: 82 % of control
T/C [3]: 75 % of control and 77 % of control

C[CH2][Ge]([CH2]C)[CH2]C.C[CH2][Ge]([CH2]C)[CH2]C.C[CH2][Ge]([CH2]C)[O][Ge]([CH2]C)[CH2]C
T/C [11]: 80 % of control
T/C [1]: 90 % of control
T/C [2]: 87 % of control
T/C [3]: 68 % of control
T/C [4]: 81 % of control and 95 % of control
T/C (dose: 800.0 mg/kg/injection, schedule: Q07DX002 (ip), vehicle: saline with Tween-80): 90 % of control

CC(Cc1ccc(O)c(O)c1)C(C)Cc1ccc(O)c(O)c1 (stereo not drawn)
T/C [7]: 100 % of control
T/C [8]: 83 % of control
T/C [12]: 94 % of control
T/C [13]: 90 % of control

c1ccc2c(c1)nnn1c3cnccc3nc21
T/C [9]: 63 % of control and 88 % of control
T/C [1]: 82 % of control and 85 % of control

c1ccc2c(NCCCCCCNc3c4ccccc4nc4ccccc34)c3ccccc3nc2c1
T/C (dose: 1.25 mg/kg/injection, schedule: Q07DX002 (ip), vehicle: Klucel (hydroxypropylcellulose) (HPC)): 109 % of control and 95 % of control
T/C (dose: 2.5 mg/kg/injection, schedule: Q07DX002 (ip), vehicle: Klucel (hydroxypropylcellulose) (HPC)): 122 % of control and 97 % of control
T/C (dose: 5.0 mg/kg/injection, schedule: Q07DX002 (ip), vehicle: Klucel (hydroxypropylcellulose) (HPC)): 70 % of control
T/C (dose: 20.0 mg/kg/injection, schedule: Q07DX002 (ip), vehicle: Klucel (hydroxypropylcellulose) (HPC)): 70 % of control and 76 % of control
T/C (dose: 40.0 mg/kg/injection, schedule: Q07DX002 (ip), vehicle: Klucel (hydroxypropylcellulose) (HPC)): 72 % of control

COC1OC(CO)C(O)C(NC(=O)N(C)N=O)C1O (stereo not drawn)
T/C [6]: 113 % of control
T/C [8]: 95 % of control and 102 % of control
T/C [13]: 2 % of control and 9 % of control

C[n+]1ccc(Nc2ccc(NC(=O)c3ccc(Nc4cc[n+](C)c5ccc(N)cc45)cc3)cc2)cc1
T/C [14]: 99 % of control
T/C [15]: 86 % of control
T/C [16]: 93 % of control

CC[N](CC)[Ge]([CH2]C)[CH2]C.CC[N](CC)[Ge]([CH2]C)[CH2]C
T/C [5]: 87 % of control
T/C [17]: 77 % of control
T/C [6]: 77 % of control
T/C [18]: 69 % of control
T/C [7]: 79 % of control
T/C [19]: 95 % of control
T/C [8]: 77 % of control
T/C [20]: 84 % of control
T/C [12]: 61 % of control

C1CC[N-]CC1.C1CC[N-]CC1.C1CC[N-]CC1.[Cl][Rh]([Cl])[Cl]
T/C [7]: 105 % of control
T/C [12]: 120 % of control and 124 % of control
T/C (dose: 200.0 mg/kg/injection, schedule: Q07DX002 (ip), vehicle: saline): 92 % of control

C/C(=N\NC(N)=O)c1cccc(/C(C)=N/NC(N)=O)n1
T/C [11]: 87 % of control and 94 % of control
T/C [1]: 66 % of control and 71 % of control
T/C [2]: 73 % of control and 96 % of control
T/C [4]: 96 % of control
T/C (dose: 400.0 mg/kg/injection, schedule: Q07DX002 (ip), vehicle: saline with Tween-80): 57 % of control

COc1cccc2c1C(=O)c1c(O)c3c(c(O)c1C2=O)C[C@@](O)(C(C)=O)C[C@@H]3OC1CC(N)C(O)C(C)O1 (stereo partly drawn)
T/C [14]: 75 % of control
T/C (dose: 0.5 mg/kg/injection, schedule: Q07DX003 (ip), vehicle: saline): 62 % of control and 76 % of control
T/C [15]: 230 % of control
T/C (dose: 1.0 mg/kg/injection, schedule: Q07DX003 (ip), vehicle: saline): 55 % of control and 76 % of control
T/C [16]: 117 % of control
T/C (dose: 2.0 mg/kg/injection, schedule: Q07DX003 (ip), vehicle: saline): 78 % of control and 91 % of control

Nc1ccc(C(OC(=O)c2cc3ccccc3c(Cc3c(O)c(C(=O)OC(c4ccc(N)cc4)(c4ccc(N)cc4)c4ccc(N)cc4)cc4ccccc34)c2O)(c2ccc(N)cc2)c2ccc(N)cc2)cc1
T/C (dose: 1.56 mg/kg/injection, schedule: Q07DX002 (ip), vehicle: saline with Tween-80): 100 % of control
T/C [9]: 70 % of control
T/C [10]: 92 % of control
T/C [1]: 84 % of control and 93 % of control
T/C [2]: 114 % of control

CC(=O)OCC1C(=O)OCC1C(=O)N1Cc2cc3ccccc3nc2C1 (stereo not drawn)
T/C (dose: 4.0 mg/kg/injection, schedule: Q07DX002 (ip), vehicle: saline with Tween-80): 88 % of control
T/C (dose: 8.0 mg/kg/injection, schedule: Q07DX003 (ip), vehicle: saline with Tween-80): 230 % of control
T/C (dose: 16.0 mg/kg/injection, schedule: Q07DX003 (ip), vehicle: saline with Tween-80): 191 % of control
T/C (dose: 32.0 mg/kg/injection, schedule: Q07DX003 (ip), vehicle: saline with Tween-80): 30 % of control
T/C (dose: 64.0 mg/kg/injection, schedule: Q07DX002 (ip), vehicle: saline with Tween-80): 85 % of control and 102 % of control
T/C (dose: 128.0 mg/kg/injection, schedule: Q07DX002 (ip), vehicle: saline with Tween-80): 115 % of control
T/C (dose: 128.0 mg/kg/injection, schedule: Q07DX003 (ip), vehicle: saline with Tween-80): 107 % of control

CN(C)CCC(=O)C(=Cc1ccc(O)cc1)C(=O)CCN(C)C
T/C [7]: 97 % of control
T/C [8]: 112 % of control
T/C [12]: 77 % of control

CCc1ccc(C2=C(O)C(=O)C(c3ccc(CC)cc3)=C(O)C2=O)cc1
T/C [9]: 51 % of control
T/C [11]: 124 % of control
T/C [1]: 96 % of control
T/C [2]: 81 % of control

CC12C(=O)C=CCC1=CCC1C2CCC2(O)C(=O)OC3(C)C4CC5(C)C(COC16OC23C5C6=O)C(=O)O4 (stereo not drawn)
T/C (dose: 50.0 mg/kg/injection, schedule: Q07DX002 (ip), vehicle: Klucel (hydroxypropylcellulose) (HPC)): 112 % of control
T/C (dose: 100.0 mg/kg/injection, schedule: Q07DX002 (ip), vehicle: Klucel (hydroxypropylcellulose) (HPC)): 86 % of control
T/C (dose: 400.0 mg/kg/injection, schedule: Q07DX002 (ip), vehicle: Klucel (hydroxypropylcellulose) (HPC)): 111 % of control

O=CC(=O)c1ccc(O)cc1
T/C [17]: 216 % of control
T/C [18]: 114 % of control
T/C [19]: 153 % of control
T/C [20]: 153 % of control
T/C (dose: 200.0 mg/kg/injection, schedule: Q07DX002 (ip), vehicle: suspension in saline): 118 % of control

NC(=O)c1csc(C2OC(CO)C(O)C2O)n1 (stereo not drawn)
T/C (dose: 50.0 mg/kg/injection, schedule: Q07DX002 (ip), vehicle: water): 154 % of control
T/C (dose: 100.0 mg/kg/injection, schedule: Q07DX002 (ip), vehicle: water): 121 % of control and 106 % of control
T/C (dose: 200.0 mg/kg/injection, schedule: Q07DX002 (ip), vehicle: water): 111 % of control and 92 % of control
T/C (dose: 400.0 mg/kg/injection, schedule: Q07DX002 (ip), vehicle: water): 124 % of control and 104 % of control
T/C (dose: 800.0 mg/kg/injection, schedule: Q07DX002 (ip), vehicle: water): 72 % of control
